In US8524809B2, “Low odor compositions and methods to attain low odor compositions” (Rohm and Haas Company, priority 2010, dated 2013):

Experiment: NaBH4 treatment: headspace composition of acrylic latex AC261
Details: 1 week, 500 ppm NaBH4 (with 60 ppm CALBL where combined)
Method: Headspace VOC content in aqueous compositions was determined by a method based on ASTM 3960: Standard Practice for Determining Volatile Organic Compound (VOC) Content of Paints and Related Coatings. This method uses static headspace sampling/GC-MS at 33° C. to determine the headspace concentrations of compounds above aqueous emulsion polymers or waterborne paints.
Weigh 5 g of each sample into 22 ml headspace vials with aluminum caps and crimp the cap tightly. Repeat the procedure with water blanks to be run, at a minimum, at the beginning and end of a sequence of samples. Analyze the samples via headspace GC-MS. Integrate all peaks in the resulting chromatogram that have a signal greater than five times the root-mean-square baseline noise. Once a satisfactory separation of the volatiles is achieved, mass spectral analysis and/or retention time matching against known compounds is used to identify the compounds detected. Determine the concentration of each calibrated compound in the sample headspace using the linear-least-squares equation from the calibration plot for that compound. Levels of the component in the headspace are reliable to 0.1 ppm by the GC-MS technique.

For `[BH4-].[Na+]` [NaBH4, sodium borohydride], the “Level of 2-butenoic acid, butyl ester in headspace” value was 65 ppm, the “Level of 2-methyl-3-hexanone in headspace” value was 0 ppm and the “Level of Acetone in headspace” value was 0 ppm. For the same compound, the “Level of Butanal in headspace” value was 0 ppm, the “Level of Isobutyraldehyde in headspace” value was 0 ppm and the “Level of benzaldehyde in headspace” value was 0 ppm. The “Level of butyl acetate in headspace” value was 104 ppm, the “Level of butyl acrylate in headspace” value was 67 ppm and the “Level of butyl propionate in headspace” value was 207 ppm. The “Level of methyl isobutyrate in headspace” value was 17 ppm.
